According to patent US7943795B2, “Vitamin D receptor modulators” (Eli Lilly and Company, priority 2004, dated 2011):

What was measured:
Assay type in all cases: cell-based
[1] = system: KERtr cells (Human skin keratinocyte); test: Keratinocyte proliferation assay; details: 72 hr, BrdU incorporation, read-out: Keranocyte Proliferation IC50
Description: 6. The keratinocyte proliferation assay is described in the “Assay” section of the Description, infra.
The Keratinocyte Proliferation Assay
This Assay is indicative for the treatment of psoriasis. An acceptable test result is IC50 value of less than or equal to 300 nM. Preferred assay results are IC50 values of less than 100 nM.
KERtr cells (Human skin keratinocyte are transformed with a retrovirus vector, obtained from ATCC, then are plated in 96-well flat-bottomed plates (3000 cells/well) in 100 μl keratinocyte serum free medium supplemented with bovine pituitary extract in the absence of EGF (Life Technologies, Rockville, Md.) and are incubated at 37° C. for two days. The cells are treated with various concentrations of VDR ligands (ten-fold serial dilution from 10,000 nM to 0.1 nM in triplicate), dissolved in 100 μl keratinocyte serum free medium supplemented with bovine pituitary extract in the absence of EGF and are incubated at 37° C. for 72 hr. BrdU (5-bromo-2′-deoxyuridine) incorporation is analyzed as a measure of DNA replication (Cell proliferation ELISA kit, Roche Diagnostics, Indianapolis, Ind.) and absorbance is measured at […]. Potency values (IC50) values were determined as the concentration (nM) of compound that elicited a half-maximal response.

rat osteocalcin promoter = test: OCN (osteocalcin) promoter assay; details: RG-15 (ROS 17/2.8) cells, 48 hr treatment, luciferase reporter
Description: 4. The OCN Promoter test is described in the “Assay” section of the Description, infra.
The OCN (Osteocalcin) Promoter Assay
The OCN Promoter Assay is an indicator and marker for osteoporosis. Desired assay results are EC50 less than or equal to 325 nM. Preferred assay results are less than 50 nM.
The activation of osteocalcin by VDR ligands is evaluated in a rat osteoblast-like cell line RG-15 (ROS 17/2.8) stably expressing rat osteocalcin promoter fused with luciferase reporter gene. The stable cell lines are established as reported before (Activation of Osteocalcin Transcription involves interaction of protein kinase A- and Protein kinase C-dependent pathways. Boguslawski, G., Hale, L. V., Yu, X.-P., Miles, R. R., Onyia, J. E., Santerre R. F., Chandrasekhar, S. J Biol. Chem. 275, 999-1006, 2000). Confluent RG-15 cells maintained in DMEM/F-12 medium (3:1) containing 5% FBS, 300 μg/ml G418 and at 37° C. under 5% CO2/95% air atmosphere are trypsinized (0.25% trypsin) and plated into white opaque 96-well cell culture plates (25000 cells/well). After 24 hr, cells (in DMEM/F-12 medium+2% FBS) are treated with various concentrations of compounds, dissolved in DMSO. The final DMSO concentration remains at 0.01% (v/v). After 48 hr treatment, the medium is removed, cells are lysed with 50 μl of lysis buffer (From Luciferase reporter assay system, Roche Diagnostics, Indianapolis, Ind.) and then assayed for luciferase activity using the Luciferase Reporter Gene Assay kit from Boehringer Mannheim as per manufacturer's specifications.

VDR = target: T1, VDR (Homo sapiens, UniProt P11473); test: VDR CTF (Caco-2 cells) co-transfection assay; details: pGal4-VDR-LBD, luciferase reporter
T1 construct: the receptor expression vector pGal4-VDR-LBD (10 ng); expressed in transfected cells; host or cells: Caco-2 cells
T1 sequence (P11473 127-423 limits assumed): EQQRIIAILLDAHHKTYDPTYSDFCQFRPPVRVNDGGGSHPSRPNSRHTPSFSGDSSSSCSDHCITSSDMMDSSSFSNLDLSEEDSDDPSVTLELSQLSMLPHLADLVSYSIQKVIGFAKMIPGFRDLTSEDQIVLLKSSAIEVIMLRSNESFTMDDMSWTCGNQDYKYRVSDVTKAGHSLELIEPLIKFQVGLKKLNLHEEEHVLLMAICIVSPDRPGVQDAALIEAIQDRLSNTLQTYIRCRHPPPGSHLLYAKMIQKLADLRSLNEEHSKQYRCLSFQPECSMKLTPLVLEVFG
Description: 3. The VDR CTF (Caco-2 cells) test is described in the “Assay” section of the Description, infra.
The Caco-2 cell assay is an indicator for the undesirable condition of hypercalcemia. This co-transfection assay is a surrogate assay for in vivo calcemic activity of VDR ligands. It is desirable to have high EC50 values for a test compound in this assay. The higher the EC50 values for a compound the less calcemic it will be in vivo. Desired assay results are EC50 greater than or equal to 300 nM. Preferred assay results are greater than 1000 nM.
Caco-2 cells, grown in phenol red free, DMEM (Invitrogen, Carlsbad, Calif.) containing 10% charcoal-stripped FBS (Hyclone, Logan, Utah), are transfected with Fugene 6 reagent (Roche Diagnostics, Indianapolis, Ind.). Cells (5000/well) are plated 18 h before transfection in a 96 well plate. The cells are transfected with Gal4-responsive reporter pFRLuc (150 ng, Stratagene, La Jolla Calif.) and the receptor expression vector pGal4-VDR-LBD (10 ng), along with Fugene 6 reagent (0.2 μl/well). The DNA-Fugene complex is formed by incubating the mixture for 30 m at room temperature. The cells are transfected in triplicate for 5 h, and treated with various concentrations of VDR ligands (from 0.01 nM to […] concentration range) 18 h post-transfection. The luciferase activity is quantified using Steady-Glo reagent kit (Promega, Madison, Wis.) as per manufacturer's specifications.

Compound	IC50 [1]	EC50 (rat osteocalcin promoter; Rattus norvegicus, 48 h)	EC50 (VDR)	EC50 (rat osteocalcin promoter)
CCC(CC)(c1ccc(OCC(=O)C(C)(C)C)c(C)c1)c1ccc2cc(C(=O)N(C)CC(=O)O)ccc2c1 [Ex. 5, [(6-{1-[4-(3,3-Dimethyl-2-oxobutoxy)-3-methylphenyl]-1-ethylpropyl}naphthalene-2-carbonyl)methylamino]acetic acid]	24 nM	0.2 nM	162 nM	
CCC(CC)(c1ccc(OCC(O)C(C)(C)C)c(C)c1)c1ccc2cc(C(=O)O)ccc2c1 (single isomer, unassigned) [Ex. 2A, 6-{1-Ethyl-1-[4-(2-hydroxy-3,3-dimethyl-butoxy)-3-methyl-phenyl]-propyl}-naphthalene-2-carboxylic acid]			466 nM	6 nM
CCC(CC)(c1ccc(OCC(=O)C(C)(C)C)c(C)c1)c1ccc2cc(C(=O)O)ccc2c1 [Ex. 1, 6-{1-[4-(3,3-dimethyl-2-oxobutoxy)-3-methylphenyl]-1-ethylpropyl}naphthalene-2-carboxylic acid]	653 nM	2.6 nM	194 nM	
CCC(CC)(c1ccc(OCC(=O)C(C)(C)C)c(C)c1)c1ccc2cc(C(=O)NCC(=O)O)ccc2c1 [Ex. 3, [(6-{1-[4-(3,3-Dimethyl-2-oxo-butoxy)-3-methylphenyl]-1-ethylpropyl}naphthalene-2-carbonyl)amino]acetic acid]	2 nM	0.1 nM	35 nM	
CCC(CC)(c1ccc(OCC(=O)C(C)(C)C)c(C)c1)c1ccc2cc(C(=O)N(C)C)ccc2c1 [Ex. 4, 6-{1-[4-(3,3-dimethyl-2-oxobutoxy)-3-methylphenyl]-1-ethylpropyl}naphthalene-2-carboxylic acid dimethylamide]	> 1000 nM	41 nM	550 nM	
